Test results from paper PMC4108065, “Inflammation and pancreatic cancer: molecular and functional interactions between S100A8, S100A9, NT-S100A8 and TGFβ1” (Cell Communication and Signaling : CCS, 2014).

System: BxPC3-SMAD4+ IκBα and Akt phosphorylation
Assay: Signaling western blot in BxPC3-SMAD4+ cells
Type: cell-based, human
Conditions: BxPC3-SMAD4+ vs BxPC3, 10 min, 10 nM S100A8
Protocol: The pancreatic cancer cell lines used were: Panc1 and Suit2, donated by Prof Aldo Scarpa (University of Verona, Italy); BxPC3, from Dr Andrea Galli (University of Florence, Italy); MiaPaCa2, Capan1 and the human embryonic kidney Hek293 cell lines, supplied by the American Type Culture Collection (Manassas, VA, USA). BxPC3, Capan1 and Panc1 were cultured in RPMI (Gibco/BRL, Gaithhersburg, MD, USA) supplemented with 10% (BxPC3 and Panc1) and 20% (Capan1) fetal calf serum (FCS) (Gibco/BRL), 1% L-glutamine (Gibco/BRL) and 0.1% gentamycin (Gibco/BRL). MiaPaCa2 and Hek293 were cultured in DMEM (Gibco/BRL) supplemented with 10% FCS, 2% L-glutamine and 0.1% Gentamycin. BxPC3 cells were transfected with the expression vector pBK-cytomegalovirus (CMV)-SMAD4/DPC4, as previously described. One SMAD4/DPC4-expressing clone (BxPC3-SMAD4+) was used for the experiments. Smad4 silencing of MiaPaCa2 cells was performed as previously described.
Five million cells were seeded in Petri dishes (ø 10 cm) and cultured for 24 hours in their respective complete media prior to starting the experiments. […] Lysates were centrifuged for 10 min at 14,000 rpm at 4°C and, in the supernatants, total proteins were measured using the Bio-Rad protein assay (Bio-Rad Laboratories, Milano, Italy). […]

Substance: S100A8: inflammatory calcium binding protein S100A8 (ProSpec-Tany TechnoGene)
- IκBα phosphorylation in Smad4 expressing BxPC3: reduced IκBα phosphorylation
